Source: patent US20100298300A1, “TRIAZOLOPYRAZINE COMPOUNDS USEFUL FOR THE TREATMENT OF DEGENERATIVE & INFLAMMATORY DISEASES” (priority 2006, published 2010)

Legend:
MAPKAPK5 = target: T1, MAPKAPK5 (Homo sapiens, UniProt Q8IW41); assay: MAPKAP-K5 assay (FlashPlate kinase assay)
T1 sequence (Q8IW41 1-471 isoform Q8IW41-2): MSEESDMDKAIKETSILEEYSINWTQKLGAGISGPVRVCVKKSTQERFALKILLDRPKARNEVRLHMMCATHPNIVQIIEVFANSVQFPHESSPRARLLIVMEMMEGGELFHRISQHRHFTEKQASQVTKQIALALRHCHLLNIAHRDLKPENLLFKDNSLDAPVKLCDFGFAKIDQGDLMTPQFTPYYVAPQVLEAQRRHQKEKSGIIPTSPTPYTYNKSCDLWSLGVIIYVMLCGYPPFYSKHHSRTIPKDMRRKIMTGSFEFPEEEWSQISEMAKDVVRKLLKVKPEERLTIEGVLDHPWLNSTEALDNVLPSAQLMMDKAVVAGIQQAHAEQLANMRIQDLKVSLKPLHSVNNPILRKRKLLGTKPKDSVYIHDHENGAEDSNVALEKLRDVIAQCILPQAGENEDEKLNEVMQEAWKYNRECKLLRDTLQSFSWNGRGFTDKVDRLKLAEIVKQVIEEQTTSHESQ
Method: MAPKAP-K5 reactions are performed in FlashPlate format using 0.1 or 0.2 μCi 33P-ATP; 0.6 μM ATP; 1 mU MAPKAP-K5; 3 μM MAPKAP-K5 peptide substrate, incubated at room temperature for 30 minutes.
The MAPKAP-K5 kinase reaction is performed in a 384 well polypropylene plate (Matrix Technologies) and then transferred to a streptavidin-coated 384 well flashplate (Perkin-Elmer).
To wells containing 2 μL test compound or standard inhibitor, 13 μL Enzyme mix or diluent are added using a Hydra (Robbins Scientific).
Reactions are started by addition of 10 μL of [2,5×] substrate cocktail using a Multidrop (Thermo-Labsystems), to give final concentrations in the assay of:
Plates are incubated at room temperature for 30 minutes.
Reactions are terminated by the addition of 25 μL EDTA (50 mM) to each well using a Micro-fill (Biotek).
Reactions are transferred to a streptavidin-coated flashplate using a Zymark robotic system. Plates are incubated for 60 minutes at room temperature.
All wells are washed 3 times with 100 μl phosphate buffered saline using a Tecan plate washer.
Radioactivity is determined by scintillation counting of the flashplate (empty wells) on a Packard TopCount.
Enzyme Mix: • Enzyme • 50 mM Tris Hcl (pH 7.5) • 0.1 mM EGTA • 2 mM DTT • 1 mg/mL BSA
Reaction Buffer: • 50 mM Tris Hcl (pH 7.5) • 0.1 mM EGTA • 10 mM Magnesium acetate • 2 mM DTT

[1] = test system: MMP1 expression by activated primary synovial fibroblasts; assay: 'MMP assay': MMP1 expression by complex trigger activated synovial fibroblasts (MMP1 ELISA); assay type: cell-based; conditions: Homo sapiens, Fibroblast; for EC50: RASFs, complex trigger, 48 hrs, MMP1 ELISA

SMILES | IC50 (MAPKAPK5) [nM] | EC50 ([1]; Table 4) [nM] | EC50 ([1]; Table 3) [nM] | IC50 ([1]; complex trigger activated SFs, 48 hrs after treatment, FIG. 3, read-out: IC50 of reduction of MMP1 expression by SFs) [nM]
O=C(Nc1cn(Cc2ccccc2)cn1)c1ccc(Nc2ncc(-c3cn[nH]c3)n3ncnc23)cc1 [Compound 198] | > 1000 | > 1000 |  | 
Cc1sc(C(N)=O)cc1-c1cnc(Nc2ccc(N3CCN(C(C)C)CC3)nc2)c2ncnn12 [Compound 96] | > 1000 |  | > 1000 | 
O=C(NCc1ccccn1)c1cccc(Nc2ncc(-c3cn[nH]c3)n3ncnc23)c1 [Compound 124, N-Pyridin-2-ylmethyl 3-[5-(1H-pyrazol-4-yl)-[1,2,4]triazolo[1,5-a]pyrazin-8-ylamino]benzamide] | > 1000 | > 1000 |  | 
CC(C)N1CCN(c2ccc(Nc3ncc(-c4coc(C(N)=O)c4)n4ncnc34)cc2)CC1 [Compound 88, 4-(8-(4-(4-Isopropylpiperazin-1-yl)phenylamino)-[1,2,4]triazolo[1,5-a]pyrazin-5-yl)furan-2-carboxamide] | 1 to 100 |  | 501 to 1000 | 
CC(C)NC(=O)CN1CCN(C(=O)c2ccc(Nc3ncc(-c4cn[nH]c4)n4ncnc34)cc2)CC1 [Compound 155] | 501 to 1000 | > 1000 |  | 
CC(C)(C)N1CCN(c2ccc(Nc3ncc(-c4coc(C(N)=O)c4)n4ncnc34)cc2)CC1 [Compound 183] | 1 to 100 |  | > 1000 | 
CC(C)N(CCNC(=O)c1ccc(Nc2ncc(-c3cn[nH]c3)n3ncnc23)cc1)C(C)C [Compound 162] | 501 to 1000 | > 1000 |  | 
O=C(NCc1cc(-c2ccccc2)on1)c1ccc(Nc2ncc(-c3cn[nH]c3)n3ncnc23)cc1 [Compound 192] | > 1000 | 101 to 500 |  | 
CC(C)N1CCN(c2ccc(Nc3ncc(-c4ccc5c(c4)C(=O)NC5)n4ncnc34)cc2)CC1 [Compound 109] | > 1000 |  | > 1000 | 
CCN1CCC[C@H]1CNC(=O)c1ccc(Nc2ncc(-c3cn[nH]c3)n3ncnc23)cc1 [Compound 163] |  | > 1000 |  | 
CC(C)N1CCCN(c2ccc(Nc3ncc(-c4ccc5c(c4)CNC5=O)n4ncnc34)cc2)CC1 [Compound 188] | 1 to 100 |  |  | 
C[C@@H]1C[C@H]2[C@@H]3CCC4=CC(=O)C=C[C@]4(C)[C@@]3(F)[C@@H](O)C[C@]2(C)[C@@]1(O)C(=O)CO [dexamethasone, reference compound] |  |  |  | ~1
O=C(N[C@@H]1CCN(Cc2ccccc2)C1)c1ccc(Nc2ncc(-c3ccc4c(c3)CNC4=O)n3ncnc23)cc1 [Compound 195] | 101 to 500 | > 1000 |  | 
CCNC(=O)c1cccc(Nc2ncc(-c3cn[nH]c3)n3ncnc23)c1 [Compound 129, N-Ethyl 3-[5-(1H-pyrazol-4-yl)-[1,2,4]triazolo[1,5-a]pyrazin-8-ylamino]benzamide] | > 1000 | > 1000 |  | 
O=C1NCc2cc(-c3cnc(NC4CCNCC4)c4ncnn34)ccc21 [Compound 185] | > 1000 |  | > 1000 | 
NC(=O)c1cc(-c2cnc(Nc3ccc(NC(=O)c4ccccc4)nc3)c3ncnn23)cs1 [Compound 133] | > 1000 | > 1000 |  | 
O=C(NCc1ccccc1)c1cccc(Nc2ncc(-c3cn[nH]c3)n3ncnc23)c1 [Compound 123] | > 1000 | > 1000 |  | 
O=C1NCc2cc(-c3cnc(NCC4CCCCC4)c4ncnn34)ccc21 [Compound 184] | 101 to 500 |  | > 1000 | 
CC(C)N1CCN(c2ccc(Nc3ncc(-c4csc(C(N)=O)c4)n4ncnc34)cn2)CC1 [Compound 55, 4-{8-[6-(4-Isopropylpiperazin-1-yl)pyridin-3-ylamino]-[1,2,4]triazolo[1,5-a]pyrazin-5-yl}thiophene-2-carboxylic acid amide] | 101 to 500 |  | 101 to 500 | 
CC(C)N1CCC(Nc2ncc(-c3ccc4c(c3)CNC4=O)n3ncnc23)CC1 [Compound 186] | > 1000 |  |  | 
O=C(Nc1ccc(Nc2ncc(-c3cn[nH]c3)n3ncnc23)cn1)c1ccccc1 [Compound 135] | > 1000 |  |  | 
CN(C)Cc1cc(Nc2ncc(-c3ccc4c(c3)CNC4=O)n3ncnc23)ccc1N1CCOCC1 [Compound 175] |  |  | > 1000 | 
COCCN1CCC(c2ccc(Nc3ncc(-c4ccc5c(c4)CNC5=O)n4ncnc34)cc2)CC1 [Compound 189] | 1 to 100 |  |  | 
O=C(N[C@H]1CCN(Cc2ccccc2)C1)c1ccc(Nc2ncc(-c3cn[nH]c3)n3ncnc23)cc1 [Compound 191] | > 1000 |  |  | 

The next lines start with results.

IC50 (MAPKAPK5) [nM] | SMILES | EC50 ([1]; Table 4) [nM] | EC50 ([1]; Table 3) [nM] | IC50 ([1]; complex trigger activated SFs, 48 hrs after treatment, FIG. 3, read-out: IC50 of reduction of MMP1 expression by SFs) [nM]
> 1000 | O=C(c1cccc(Nc2ncc(-c3cn[nH]c3)n3ncnc23)c1)N1CCCC1 [Compound 126] | > 1000 |  | 
501 to 1000 | O=C(c1ccc(Nc2ncc(-c3cn[nH]c3)n3ncnc23)cc1)N1CCN(c2ccccn2)CC1 [Compound 148] | > 1000 |  | 
501 to 1000 | CCOCCN1CCN(C(=O)c2ccc(Nc3ncc(-c4cn[nH]c4)n4ncnc34)cc2)CC1 [Compound 141] | > 1000 |  | 
501 to 1000 | COCCN1CCN(C(=O)c2ccc(Nc3ncc(-c4cn[nH]c4)n4ncnc34)cc2)CC1 [Compound 150] | > 1000 |  | 
> 1000 | CC(C)N1CCN(c2ccc(Nc3ncc(-c4ccc5cn[nH]c5c4)n4ncnc34)cc2)CC1 [Compound 106] |  |  | 
> 1000 | O=C(NCc1cccnc1)c1ccc(Nc2ncc(-c3cn[nH]c3)n3ncnc23)cc1 [Compound 118, 4-(5-(1H-Pyrazol-4-yl)-[1,2,4]triazolo[1,5-a]pyrazin-8-ylamino)-N-(pyridin-3-ylmethyl)benzamide] | > 1000 |  | 
> 1000 | COC[C@@H]1CCCN1C(=O)c1ccc(Nc2ncc(-c3cn[nH]c3)n3ncnc23)cc1 [Compound 146] | > 1000 |  | 
501 to 1000 | CCN1CCN(C(=O)c2ccc(Nc3ncc(-c4cn[nH]c4)n4ncnc34)cc2)CC1 [Compound 138] | > 1000 |  | 
501 to 1000 | O=C(NCC1CCCO1)c1ccc(Nc2ncc(-c3cn[nH]c3)n3ncnc23)cc1 (stereo not drawn) [Compound 158] | > 1000 |  | 
> 1000 | COCCN(C)C(=O)c1ccc(Nc2ncc(-c3cn[nH]c3)n3ncnc23)cc1 [Compound 156] | > 1000 |  | 
> 1000 | O=C1CN(c2ccc(Nc3ncc(-c4cn[nH]c4)n4ncnc34)cc2)CCN1 [Compound 177] |  | > 1000 | 
501 to 1000 | O=C(c1ccc(Nc2ncc(-c3cn[nH]c3)n3ncnc23)cc1)N1CCN(Cc2ccc(F)cc2)CC1 [Compound 144] |  |  | 
501 to 1000 | O=C(c1ccc(Nc2ncc(-c3cn[nH]c3)n3ncnc23)cc1)N1CC=CCC1 [Compound 159] | > 1000 |  | 
> 1000 | CCC(COC)NC(=O)c1ccc(Nc2ncc(-c3cn[nH]c3)n3ncnc23)cc1 (stereo not drawn) [Compound 149] | > 1000 |  | 
> 1000 | O=C(NCC1CC1)c1ccc(Nc2ncc(-c3cn[nH]c3)n3ncnc23)cc1 [Compound 142] | > 1000 |  | 
501 to 1000 | CN1CCN(c2ccc(NC(=O)c3ccc(Nc4ncc(-c5cn[nH]c5)n5ncnc45)cc3)cc2)CC1 [Compound 153] | > 1000 |  | 
501 to 1000 | CCC(C)N1CCN(C(=O)c2ccc(Nc3ncc(-c4cn[nH]c4)n4ncnc34)cc2)CC1 (stereo not drawn) [Compound 152] | > 1000 |  | 
> 1000 | O=C(c1ccc(Nc2ncc(-c3cn[nH]c3)n3ncnc23)cc1)N1CCC(N2CCCCC2)CC1 [Compound 165] | > 1000 |  | 
> 1000 | CC(C)N1CCCN(c2ccc(Nc3ncc(-c4cn[nH]c4)n4ncnc34)cc2)CC1 [Compound 187] |  |  | 
